Values quoted from earlier work as cited in patent US6740517B2, “Incubation method for obtaining solid culture of Zang Zhi, solid culture obtained therefrom, processed products and use thereof” (priority 2001, dated 2004).

Tests used:
[1] = system: mouse with the acute hepatitis induced by CCl4
[2] = system: lymphoma cells of a p-388 mouse

Compound: 3,11-dioxo-8,23-dien-26-oic acid
- GPT in the blood [1]: reduce GPT

Compound: C=C(CC[C@@H](C)[C@H]1CC[C@H]2C3=C(C(=O)C[C@]12C)[C@@]1(C)CCC(=O)[C@@H](C)[C@@H]1CC3=O)C(C)C(=O)O (stereo partly drawn) [Zhankuic acid A]
- inhibition to agglutination of blood platelets (blood platelets): conspicuous inhibition
- inhibition to the lymphoma cells of a p-388 mouse [2]: conspicuous inhibition
